Like-named read-outs stand apart in the source and are kept apart here.
How the values were obtained:
[1] = system: Mycosphaerella graminicola; Anamorph: Septoria tritici; Bayer Code SEPTTR; assay: Leaf blotch of wheat, foliar fungicide treatment, one day protectant (1DP) or three day curative (3DC); type: in vivo, Septoria tritici on wheat plants (variety Yuma); conditions: Zymoseptoria tritici; for pest or weed control at 50 ppm / pest or weed control at 200 ppm: % disease control rating
[2] = system: Venturia inaequalis; Bayer Code VENTIN; assay: Apple scab; type: in vivo; conditions: 24 h, % disease control rating, one day protectant; for pest or weed control at 25 ppm: read-out: VENTIN 1 DP 25 ppm; for pest or weed control at 75 ppm: read-out: VENTIN 1 DP 75 ppm
[3] = system: Cercospora beticola; Bayer Code CERCBE; assay: Leaf spot of sugar beets; type: in vivo, Cercospora beticola on sugar beets (variety HH-88); conditions: 24 h, % disease control rating, one day protectant; for pest or weed control at 25 ppm: read-out: CERCBE 1 DP 25 ppm; for pest or weed control at 75 ppm: read-out: CERCBE 1 DP 75 ppm
[4] = 24 h, one day protectant (1DP), rating of percent disease control, read-out: SETTTR 1DP 25 ppm
[5] = 24 h, one day protectant (1DP), rating of percent disease control, read-out: SEPTTR 1DP 100 ppm
[6] = 72 h, three day curative (3DC), rating of percent disease control, read-out: SEPTTR 3DC 25 ppm
[7] = 72 h, three day curative (3DC), rating of percent disease control, read-out: SEPTTR 3DC 100 ppm
[8] = 24 h, one day protectant, rating of percent disease control, read-out: SETTTR 1DP 25 ppm
[9] = 24 h, one day protectant, rating of percent disease control, read-out: SEPTTR 1DP 100 ppm
[10] = 72 h, three day curative, rating of percent disease control, read-out: SEPTTR 3DC 25 ppm
[11] = 72 h, three day curative, rating of percent disease control, read-out: SEPTTR 3DC 100 ppm

SMILES | pest or weed control at 25 ppm [1, 4] [%] | pest or weed control at 100 ppm [1, 5] [%] | pest or weed control at 25 ppm [1, 6] [%] | pest or weed control at 100 ppm [1, 7] [%] | pest or weed control at 25 ppm [2] [%] | pest or weed control at 75 ppm [2] [%] | pest or weed control at 25 ppm [3] [%] | pest or weed control at 75 ppm [3] [%] | pest or weed control at 25 ppm ([1]; 24 h, one day protectant (1DP), percent disease control rating, read-out: SETTTR 1DP 25 ppm) [%] | pest or weed control at 100 ppm ([1]; 24 h, one day protectant (1DP), percent disease control rating, read-out: SEPTTR 1DP 100 ppm) [%] | pest or weed control at 25 ppm ([1]; 72 h, three day curative (3DC), percent disease control rating, read-out: SEPTTR 3DC 25 ppm) [%] | pest or weed control at 100 ppm ([1]; 72 h, three day curative (3DC), percent disease control rating, read-out: SEPTTR 3DC 100 ppm) [%] | pest or weed control at 25 ppm [1, 8] [%] | pest or weed control at 100 ppm [1, 9] [%] | pest or weed control at 25 ppm [1, 10] [%] | pest or weed control at 100 ppm [1, 11] [%] | pest or weed control at 50 ppm ([1]; 24 h, one day protectant) [%] | pest or weed control at 200 ppm ([1]; 24 h, one day protectant) [%]
COc1ccc(Oc2ncc(F)c(/N=C/N(C)C)n2)cc1 [Compound 187] | 0 to 25 | 0 to 25 | 0 to 25 | 51 to 75 | 51 to 75 | 26 to 50 | 0 to 25 | 26 to 50 | – | – | – | – | – | – | – | – | – | –
COc1ncc(Oc2ncc(F)c(N)n2)cn1 [Compound 488] | 0 to 25 | 0 to 25 | 0 to 25 | 0 to 25 | 26 to 50 | 26 to 50 | 0 to 25 | 0 to 25 | – | – | – | – | – | – | – | – | – | –
CN(C)/C=N/c1nc(OC(=O)c2ccc(Cl)cc2Cl)ncc1F [Compound 260] | 76 to 100 | 76 to 100 | 76 to 100 | 76 to 100 | 76 to 100 | 76 to 100 | 76 to 100 | 51 to 75 | – | – | – | – | – | – | – | – | – | –
N#CN/C=N/c1nc(OCc2ccc(F)cc2)ncc1F [Compound 23, N-[5-Fluoro-2-(4-fluorobenzyloxy)pyrimidin-4-yl]-N′-cyanoformamidine] | – | – | – | – | 51 to 75 | 76 to 100 | 0 to 25 | 51 to 75 | 76 to 100 | 76 to 100 | 76 to 100 | 76 to 100 | – | – | – | – | – | –
Nc1nc(OCc2csc3ccccc23)ncc1F [Compound 630] | – | – | – | – | 51 to 75 | 76 to 100 | 0 to 25 | 0 to 25 | – | – | – | – | 76 to 100 | 76 to 100 | 76 to 100 | 76 to 100 | – | –
Cc1cnc(CNc2nc(OCc3ccco3)ncc2F)cn1 [Compound 849] | – | – | – | – | 76 to 100 | 51 to 75 | 26 to 50 | 26 to 50 | – | – | – | – | – | – | – | – | 76 to 100 | 76 to 100
C=CC(C)Oc1ncc(F)c(N)n1 (centres unmarked) [Compound 631] | – | – | – | – | 0 to 25 | 26 to 50 | 0 to 25 | 0 to 25 | – | – | – | – | 0 to 25 | 0 to 25 | 0 to 25 | 0 to 25 | – | –
COc1ccccc1CCOc1ncc(F)c(N)n1 [Compound 524] | 0 to 25 | 51 to 75 | 0 to 25 | 51 to 75 | 51 to 75 | 51 to 75 | 0 to 25 | 0 to 25 | – | – | – | – | – | – | – | – | – | –
Fc1cnc(OC2CCCCC2)nc1NCc1ccc(Cl)nc1 [Compound 858] | – | – | – | – | 26 to 50 | 0 to 25 | 26 to 50 | 26 to 50 | – | – | – | – | – | – | – | – | 0 to 25 | 26 to 50
CN(C)/C=N/c1nc(OCc2cccc(C#N)c2)ncc1F [Compound 418] | 76 to 100 | 76 to 100 | 76 to 100 | 76 to 100 | 51 to 75 | 51 to 75 | 0 to 25 | 0 to 25 | – | – | – | – | – | – | – | – | – | –
COc1c(C)cnc(COc2ncc(F)c(N)n2)c1C [Compound 189] | 51 to 75 | 76 to 100 | 51 to 75 | 76 to 100 | 51 to 75 | 51 to 75 | 26 to 50 | 0 to 25 | – | – | – | – | – | – | – | – | – | –
CC(Oc1ncc(F)c(/N=C/N(C)C)n1)c1ccc(F)cc1 (centres unmarked) [Compound 483] | 76 to 100 | 76 to 100 | 76 to 100 | 76 to 100 | 26 to 50 | 76 to 100 | 0 to 25 | 0 to 25 | – | – | – | – | – | – | – | – | – | –
